Measurements as given in US20250177396A1, “POLO-LIKE KINASE 4 (PLK4) INHIBITORS, PHARMACEUTICAL COMPOSITIONS, METHODS OF PREPARATION AND USES THEREOF” (Repare Therapeutics Inc., priority 2022, published 2025).

Molecular target: T1, PLK4 (Homo sapiens, UniProt O00444)
T1 construct: expressed in transfected cells; host or cells: HEK293 T cells (ATCC CRL-3216)
T1 sequence (O00444 1-970): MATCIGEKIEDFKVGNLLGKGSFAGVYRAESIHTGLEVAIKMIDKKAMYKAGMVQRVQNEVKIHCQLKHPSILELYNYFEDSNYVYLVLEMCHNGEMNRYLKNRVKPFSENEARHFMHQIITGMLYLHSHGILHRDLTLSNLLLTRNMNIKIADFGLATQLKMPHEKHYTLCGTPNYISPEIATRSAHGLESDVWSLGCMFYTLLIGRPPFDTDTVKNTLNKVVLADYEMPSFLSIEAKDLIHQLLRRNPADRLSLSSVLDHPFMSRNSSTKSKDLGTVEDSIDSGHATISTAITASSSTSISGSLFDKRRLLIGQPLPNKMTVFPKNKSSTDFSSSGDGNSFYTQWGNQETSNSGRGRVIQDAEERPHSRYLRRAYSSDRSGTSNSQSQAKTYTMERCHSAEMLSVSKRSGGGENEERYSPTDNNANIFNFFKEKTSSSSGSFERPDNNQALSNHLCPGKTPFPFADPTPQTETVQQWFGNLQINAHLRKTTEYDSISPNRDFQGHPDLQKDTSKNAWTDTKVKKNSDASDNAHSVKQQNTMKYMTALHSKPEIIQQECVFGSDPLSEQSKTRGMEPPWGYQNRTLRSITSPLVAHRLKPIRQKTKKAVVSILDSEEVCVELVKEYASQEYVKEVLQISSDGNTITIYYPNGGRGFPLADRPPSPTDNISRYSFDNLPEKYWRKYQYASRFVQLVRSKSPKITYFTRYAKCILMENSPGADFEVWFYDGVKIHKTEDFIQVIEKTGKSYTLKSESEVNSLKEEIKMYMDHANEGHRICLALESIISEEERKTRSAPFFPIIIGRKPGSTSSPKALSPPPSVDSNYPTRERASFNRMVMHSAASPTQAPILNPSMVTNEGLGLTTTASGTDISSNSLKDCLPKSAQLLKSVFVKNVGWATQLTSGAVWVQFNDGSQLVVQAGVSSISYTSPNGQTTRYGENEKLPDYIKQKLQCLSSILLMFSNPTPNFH
Assay: PLK4 NanoBRET target engagement assay
Format: binding
Conditions: HEK293 T cells transfected with PLK4 NanoLuc fusion vector; K-5 tracer; 2 hrs incubation
Summary of the method: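 HEK293T cells transiently expressing PLK4-NanoLuc, plated at 17000 cells/well with K-5 tracer and compound, incubated 2 h at 37 °C/5% CO2. After substrate/inhibitor mix, 610/450 nm emission ratio ×1000 gave mBRET; IC50 from 4-parameter fit.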

| Compound | IC50 |
| --- | --- |
| COc1c(Nc2cc(C)[nH]n2)nc(Sc2ccc(S(C)(=O)=O)cc2F)c(N)c1-c1cnn(C)c1 [Compound 102] | 840 nM |
| Cc1cc(Nc2nc(N(C)c3c(F)cc(S(C)(=O)=O)cc3F)nc(-c3cn(C)c(C#N)n3)c2C2CC2)n[nH]1 [Compound 204] | 8 nM |
| CN(c1nc(Nc2cc(C3CC3)[nH]n2)c(C2CC2)c(-c2cn3c(n2)COCC3)n1)c1c(F)cc(S(C)(=O)=O)cc1F [Compound 273] | 2 nM |
| Cc1cc(Nc2nc(N(C)c3c(F)cc(S(C)(=O)=O)cc3F)nc(-c3cnn4c3CCC4)c2C2CC2)n[nH]1 [Compound 175] | 4 nM |
| [2H]C([2H])([2H])n1ncc(-c2nc(N(C)c3c(F)cc(S(C)(=O)=O)cc3F)nc(Nc3cc(C)[nH]n3)c2C2CC2)c1C [Compound 153] | 8 nM |
| COc1c(Nc2cc(C)[nH]n2)nc(N(C)c2ccc(-c3nccs3)cc2)nc1-c1cnn(C)c1 [Compound 80] | 910 nM |
| COc1c(Nc2cc(C)[nH]n2)nc(N(C)c2ccc(S(=O)(=O)C3CC3)cc2F)nc1-c1cnn(C)c1 [Compound 7, N^2-(4-(cyclopropylsulfonyl)-2-fluorophenyl)-5-methoxy-N^2-methyl-N^4-(5-methyl-1H-pyrazol-3-yl)-6-(1-methyl-1H-pyrazol-4-yl)pyrimidine-2,4-diamine] | 65 nM |
| Cc1cc(Nc2nc(N(C)c3c(F)cc(S(C)(=O)=O)cc3F)nc(Nc3cnccn3)c2C2CC2)n[nH]1 [Compound 328] | 51 nM |
| Cc1cc(Nc2nc(N(C)c3c(F)cc(S(C)(=O)=O)cc3F)nc(-c3cnn(C)c3C(C)O)c2C2CC2)n[nH]1 (centres unmarked) [Compound 312] | 15 nM |
| CN(c1nc(Nc2cc(C3CC3)[nH]n2)c(C2CC2)c(-c2cn(C)cn2)n1)c1c(F)cc(S(C)(=O)=O)cc1F [Compound 228, 5-cyclopropyl-N^4-(5-cyclopropyl-1H-pyrazol-3-yl)-N^2-(2,6-difluoro-4-(methylsulfonyl)phenyl)-N^2-methyl-6-(1-methyl-1H-imidazol-4-yl)pyrimidine-2,4-diamine] | 3 nM |
| Cc1cc(Nc2nc(N(C)c3c(F)cc(S(C)(=O)=O)cc3F)nc(-c3cc(CO)n(C)n3)c2C2CC2)n[nH]1 [Compound 178] | 11 nM |
| Cc1cc(Nc2nc(N(C)c3c(F)cc(S(C)(=O)=O)cc3F)nc(-c3cnn4ccncc34)c2C2CC2)n[nH]1 [Compound 288] | 22 nM |
| Cc1cc(Nc2nc(N(C)c3c(F)cc(C(N)=O)cc3F)nc(-c3cn(C)cn3)c2C2CC2)n[nH]1 [Compound 354] | 17 nM |
| COc1c(-c2cnn(C)c2)cc(Sc2ccc(S(C)(=O)=O)cc2F)nc1Nc1cc(C)[nH]n1 [Compound 21, 6-((2-fluoro-4-(methylsulfonyl)phenyl)thio)-3-methoxy-N-(5-methyl-1H-pyrazol-3-yl)-4-(1-methyl-1H-pyrazol-4-yl)pyridin-2-amine] | 53 nM |
| [2H]C([2H])([2H])OCc1nc(-c2nc(N(C)c3c(F)cc(S(C)(=O)=O)cc3F)nc(Nc3cc(C)[nH]n3)c2C2CC2)cn1C [Compound 237] | 5 nM |
| COc1c(Nc2cc(C)[nH]n2)nc(N(C)c2ccc(C(C)(C)C#N)cc2)nc1-c1cnn(C)c1 [Compound 61] | 100 nM |
| Cc1cc(Nc2nc(N(C)c3c(F)cc(S(C)(=O)=O)cc3F)nc(-c3cnn(C)c3CC#N)c2C2CC2)n[nH]1 [Compound 308] | 2 nM |
| Cc1cc(Nc2nc(N(C)c3c(F)cc(S(C)(=O)=O)cc3F)nc(N3CCC[C@@H]3C(N)=O)c2C2CC2)n[nH]1 [Compound 346] | 12 nM |
| COc1c(Nc2cc(C)[nH]n2)nc(Sc2ccc(S(C)(=O)=O)cc2F)c(Cl)c1-c1cnn(C)c1 [Compound 100] | 240 nM |
| Cc1cc(Nc2nc(N(C)c3c(F)cc(S(C)(=O)=O)cc3F)nc(-c3cn(CCO)nc3C)c2C2CC2)n[nH]1 [Compound 202] | 6 nM |
| Cc1cc(Nc2nc(N(C)c3c(F)cc(S(C)(=O)=O)cc3F)nc(-c3cn(C4CC4)c(C)n3)c2C2CC2)n[nH]1 [Compound 241] | 4 nM |
| Cc1cc(Nc2nc(N(C)c3c(F)cc(S(C)(=O)=O)cc3F)nc(N3CC4(C3)CC(C)(O)C4)c2C2CC2)n[nH]1 [Compound 268] | 48 nM |
| Cc1cc(Nc2nc(N(C)c3c(F)cc(S(C)(=O)=O)cc3F)nc(-c3cn(C4CC4)cn3)c2C2CC2)n[nH]1 [Compound 148] | 4 nM |
| Cc1cc(Nc2nc(N(C)c3c(F)cc(S(C)(=O)=O)cc3F)nc(C(N)=O)c2C2CC2)n[nH]1 [Compound 179] | 260 nM |

| Compound | IC50 |
| --- | --- |
| Cc1cc(Nc2nc(N(C)c3c(F)cc(S(C)(=O)=O)cc3F)nc(-c3cn(C)nc3C(=O)N(C)C)c2C2CC2)n[nH]1 [Compound 252] | 48 nM |
| COc1c(Nc2cc(C)[nH]n2)nc(Oc2ccc(NS(C)(=O)=O)cc2)nc1-c1cnn(C)c1 [Compound 32] | 2800 nM |
| COCc1cc(-c2nc(N(C)c3c(F)cc(S(C)(=O)=O)cc3F)nc(Nc3cc(C)[nH]n3)c2C2CC2)nn1C [Compound 166] | 4 nM |
| COc1c(Nc2cc(C)[nH]n2)nc(N(C)c2ccc(S(C)(=O)=O)cc2)nc1-c1cnn(C)c1 [Compound 83] | 190 nM |
| COc1c(Nc2cc(C)[nH]n2)nc(N(C)c2ccc(CS(C)(=O)=O)cc2)nc1-c1cnn(C)c1 [Compound 47] | 2300 nM |
| COCCn1ncc(-c2nc(N(C)c3cc(F)c(S(C)(=O)=O)cc3F)nc(Nc3cc(C)[nH]n3)c2C2CC2)c1C [Compound 222] | 15 nM |
| Cc1cc(Nc2nc(N(C)c3ccc(S(C)(=O)=O)cc3F)nc(-c3cn(C4CC4)cn3)c2C2CC2)n[nH]1 [Compound 208] | 9 nM |
| COc1c(Nc2cc(C)[nH]n2)nc(N(C)c2ccc(Cn3ccnc3)cc2F)nc1-c1cnn(C)c1 [Compound 64] | 59 nM |
| Cc1cc(Nc2nc(N(C)c3c(F)cc(S(C)(=O)=O)cc3F)nc(-c3cnn(C)c3C(O)(O)C(F)(F)F)c2C2CC2)n[nH]1 [Compound 306] | 94 nM |
| Cc1cc(Nc2nc(N(C)c3c(F)cc(S(C)(=O)=O)cc3F)nc(-c3cc(C(F)F)n(C)n3)c2C2CC2)n[nH]1 [Compound 163] | 11 nM |
| Cc1cc(Nc2nc(N(C)c3c(F)cc(S(C)(=O)=O)c(C)c3F)nc(-c3cnn(C)c3)c2C2CC2)n[nH]1 [Compound 114] | 10 nM |
| Cc1cc(Nc2nc(N(C)c3c(F)cc(S(C)(=O)=O)cc3F)nc(-c3cnn(C4CC4)c3)c2C2CC2)n[nH]1 [Compound 126] | 5 nM |
| CN(c1nc(Nc2cc(C3CC3)[nH]n2)c(C2CC2)c(-c2cn(C)c(C#N)n2)n1)c1c(F)cc(S(C)(=O)=O)cc1F [Compound 287, 4-(5-cyclopropyl-6-((5-cyclopropyl-1H-pyrazol-3-yl)amino)-2-((2,6-difluoro-4-(methylsulfonyl)phenyl)(methyl)amino)pyrimidin-4-yl)-1-methyl-1H-imidazole-2-carbonitrile] | 6 nM |
| Cc1cc(Nc2nc(N(C)c3c(F)cc(B(O)O)cc3F)nc(-c3cn(C)cn3)c2C2CC2)n[nH]1 [Compound 351] | 52 nM |
| CNC(=O)CN(c1nc(Nc2cc(C)[nH]n2)c(OC)c(-c2cnn(C)c2)n1)c1ccc(S(C)(=O)=O)cc1F [Compound 85] | 9200 nM |
| CC#Cc1cc(Nc2nc(N(C)c3c(F)cc(S(C)(=O)=O)cc3F)nc(-c3cnn(C)c3)c2C2CC2)n[nH]1 [Compound 345] | 33 nM |
| Cc1cc(Nc2nc(N(C)c3c(F)cc(S(C)(=O)=O)cc3F)nc(-c3cn4c(n3)CCC4)c2C2CC2)n[nH]1 [Compound 140] | 3 nM |
| COC1CCc2ncc(-c3nc(N(C)c4c(F)cc(S(C)(=O)=O)cc4F)nc(Nc4cc(C)[nH]n4)c3C3CC3)n2C1 (centres unmarked) [Compound 255] | 2 nM |
| COc1c(Nc2cc(C)[nH]n2)nc(N(C)c2ccc(S(C)(=O)=O)cc2F)c(F)c1-c1cnn(C)c1 [Compound 24, 3-fluoro-N^2-(2-fluoro-4-(methylsulfonyl)phenyl)-5-methoxy-N^2-methyl-N^6-(5-methyl-1H-pyrazol-3-yl)-4-(1-methyl-1H-pyrazol-4-yl)pyridine-2,6-diamine] | 1100 nM |
| Cc1cc(Nc2nc(N(C)c3c(F)cc(S(C)(=O)=O)cc3F)nc(-c3nn(C)cc3CO)c2C2CC2)n[nH]1 [Compound 218] | 53 nM |
| Cc1cc(Nc2nc(N(C)c3c(F)cc(Cl)cc3F)nc(-c3cn(C)cn3)c2C2CC2)n[nH]1 [Compound 337] | 62 nM |
| COc1c(Nc2cc(C)[nH]n2)nc(N(C)c2cc(Cl)c(S(C)(=O)=O)cc2F)nc1-c1cnn(C)c1 [Compound 116] | 68 nM |
| COCCn1cc(-c2nc(N(C)c3cc(F)c(S(C)(=O)=O)cc3F)nc(Nc3cc(C)[nH]n3)c2C2CC2)nc1C [Compound 224] | 13 nM |
